Data on 12 molecules can be found in patent US20260166159A1, “KRAS G12D DEGRADATION AGENT, AND PREPARATION METHOD AND USE THEREFOR” (LEADINGTAC PHARMACEUTICAL (SHAOXING) CO., LTD., priority 2022, published 2026).

For assay [1], the target named is T1, Human KRAS G12D 6His-tagged (Homo sapiens, UniProt P01116, G12D).
T1 construct: purchased PerkinElmer
The assay can be described thus: KRAS-G12D/GTP binding assay (HTRF). The conditions noted are these: class symbols. In short, it runs like this:
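Compounds at 0.02-5000 nM final (0.5% DMSO) were tested for blocking GTP Red tracer binding to His-tagged KRAS G12D, detected by Eu-cryptate anti-His antibody after 1 h, 25° C. Inhibition taken from 665/620 nm ratio relative to control, then fitted to give IC50.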
For orientation: Time-resolved FRET reads energy transfer from a long-lived donor to a nearby acceptor.

Another assay has as its system phosphorylated ERK. The assay can be described thus: KRAS G12D-mediated phosphorylated ERK inhibition assay (AlphaLISA), A427. It is filed as cell-based. The conditions noted are these: Homo sapiens, A-427; A427 cells; class symbols; read-out: pERK (A427) IC50. As for the experimental part: The relative amounts of phosphorylated ERK and total ERK in the samples were separately determined according to the test methods provided in the instructions of the AlphaLISA SureFire Ultra p-ERK 1/2 (Thr202/Tyr204) kit (PerkinElmer) and the AlphaLISA SureFire Ultra TotalERK 1/2 kit (PerkinElmer).
The experimental procedures for the assay of the phosphorylated ERK and total ERK were as follows: 10 μL of each sample was added to a 384-well plate (Greiner), and 5 μL of the prepared Acceptor Beads (PerkinElmer) mixed solution (containing 50× Acceptor Beads 615, Activation Buffer, and equal volumes of Reaction Buffer 1 and Reaction Buffer 2) was added to each well; and the plate was incubated at room temperature for 2 h. Then 5 μL of 1× Donor Beads (PerkinElmer) diluted with Dilution Buffer was added to each well, and the plate was incubated at room temperature overnight. After the incubation was completed, AlphaLISA signal values for the phosphorylated ERK and total ERK were separately measured on an EnVision microplate reader (PerkinElmer) in the AlphaScreen standard mode. The following formula was adopted: phosphorylated ERK correction value=phosphorylated ERK AlphaLISA signal value/total ERK AlphaLISA signal value. The relative ratio of the phosphorylated ERK for each sample was calculated. The percentage inhibition rates of the compounds on the phosphorylated ERK at each concentration were calculated by comparing the relative value of the phosphorylated ERK with that of the DMSO control well. Then non-linear curve fittings for logarithmic concentration-inhibition rate were performed by the GraphPad Prism 8 analysis software, and the IC50 values of the compounds on the inhibition of the phosphorylated ERK were obtained (Table 2).

Bounds are passed on as bounds.

T1 sequence (P01116 1-188 isoform P01116-2 G12D): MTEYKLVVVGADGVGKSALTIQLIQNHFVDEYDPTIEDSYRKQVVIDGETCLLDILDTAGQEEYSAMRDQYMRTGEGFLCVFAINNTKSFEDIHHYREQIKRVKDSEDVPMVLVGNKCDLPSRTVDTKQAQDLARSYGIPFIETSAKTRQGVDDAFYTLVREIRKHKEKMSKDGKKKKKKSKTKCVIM

A word on the IC50: it is the midpoint of a concentration-inhibition curve. Consider `Cc1ccc2[nH]ncc2c1-c1ncc2c(N3CC4CCC(C3)N4)nc(OCC3(CN4CCN(CC5CCC6(CC5)CCN(C(=O)c5ccc(Cl)c(N7CCC(=O)NC7=O)c5)CC6)CC4)CC3)nc2c1F` [Example 16, 1-(5-(9-((4-((1-(((4-(3,8-diazabicyclo[3.2.1]octan-3-yl)-8-fluoro-7-(5-methyl-1H-indazol-4-yl)pyrido[4,3-d]pyrimidin-2-yl)oxy)methyl)cyclopropyl)methyl)piperazin-1-yl)methyl)-3-azaspiro[5.5]undecane-3-carbonyl)-2-chlorophenyl)dihydropyrimidine-2,4(1H,3H)-dione], for which the IC50 (in assay [1]; in the assay with phosphorylated ERK) was 1000 to 10000 nM each time.
Consider `C#Cc1c(F)ccc2cc(O)cc(-c3ncc4c(N5CC6CCC(C5)N6)nc(OCC5(CN6CCN(CC7CCC8(CC7)CCN(C(=O)c7ccc(Cl)c(N9CCC(=O)N(C)C9=O)c7)CC8)CC6)CC5)nc4c3F)c12` [Example 17, 1-(5-(9-((4-((1-(((4-(3,8-diazabicyclo[3.2.1]octan-3-yl)-7-(8-ethynyl-7-fluoro-3-hydroxynaphthalen-1-yl)-8-fluoropyrido[4,3-d]pyrimidin-2-yl)oxy)methyl)cyclopropyl)methyl)piperazin-1-yl)methyl)-3-azaspiro[5.5]undecane-3-carbonyl)-2-chlorophenyl)-3-methyldihydropyrimidine-2,4(1H,3H)-dione], for which the IC50 (in assay [1]; with phosphorylated ERK) was at most 50 nM in each case.
In the case of `C#Cc1c(F)ccc2cc(O)cc(-c3ncc4c(N5CC6CCC(C5)N6)nc(OCC5(CN6CCN(CCC7CCC8(CC7)CCN(C(=O)c7ccc(Cl)c(N9CCC(=O)NC9=O)c7)CC8)CC6)CC5)nc4c3F)c12` [Example 18, 1-(5-(9-(2-(4-((1-(((4-(3,8-diazabicyclo[3.2.1]octan-3-yl)-7-(8-ethynyl-7-fluoro-3-hydroxynaphthalen-1-yl)-8-fluoropyrido[4,3-d]pyrimidin-2-yl)oxy)methyl)cyclopropyl)methyl)piperazin-1-yl)ethyl)-3-azaspiro[5.5]undecane-3-carbonyl)-2-chlorophenyl)dihydropyrimidine-2,4(1H,3H)-dione], the IC50 (in assay [1]; in the assay on phosphorylated ERK) was at most 50 nM throughout.
As to `CCc1cccc2cc(O)cc(-c3ncc4c(N5CC6CCC(C5)N6)nc(OCC5(CN6CCN(CCCC7CCN(C(=O)c8ccc(Cl)c(N9CCC(=O)NC9=O)c8)CC7)CC6)CC5)nc4c3F)c12` [Example 19, 1-(5-(4-(3-(4-((1-(((4-(3,8-diazabicyclo[3.2.1]octan-3-yl)-7-(8-ethyl-3-hydroxynaphthalen-1-yl)-8-fluoropyrido[4,3-d]pyrimidin-2-yl)oxy)methyl)cyclopropyl)methyl)piperazin-1-yl)propyl)piperidine-1-carbonyl)-2-chlorophenyl)dihydropyrimidine-2,4(1H,3H)-dione], the IC50 (in assay [1]; in the assay on phosphorylated ERK) was at most 50 nM each time.
With `CCc1cccc2cc(O)cc(-c3ncc4c(N5CC6CCC(C5)N6)nc(OCC5(CN6CCN(CC7CCC8(CC7)CCN(C(=O)c7ccc(OC)c(N9CCC(=O)NC9=O)c7)CC8)CC6)CC5)nc4c3F)c12` [Example 20, 1-(5-(9-((4-((1-(((4-(3,8-diazabicyclo[3.2.1]octan-3-yl)-7-(8-ethyl-3-hydroxynaphthalen-1-yl)-8-fluoropyrido[4,3-d]pyrimidin-2-yl)oxy)methyl)cyclopropyl)methyl)piperazin-1-yl)methyl)-3-azaspiro[5.5]undecane-3-carbonyl)-2-methoxyphenyl)dihydropyrimidine-2,4(1H,3H)-dione], the IC50 (in assay [1]; in the assay on phosphorylated ERK) was at most 50 nM in each case.
As for `C#Cc1c(F)ccc2cc(O)cc(-c3ncc4c(N5CC6CCC(C5)N6)nc(OCC5(CN6CCC(COCCC7CCN(C(=O)c8ccc(Cl)c(N9CCC(=O)NC9=O)c8)CC7)CC6)CC5)nc4c3F)c12` [Example 21, 1-(5-(4-(2-((1-((1-(((4-(3,8-diazabicyclo[3.2.1]octan-3-yl)-7-(8-ethynyl-7-fluoro-3-hydroxynaphthalen-1-yl)-8-fluoropyrido[4,3-d]pyrimidin-2-yl)oxy)methyl)cyclopropyl)methyl)piperidin-4-yl)methoxy)ethyl)piperidine-1-carbonyl)-2-chlorophenyl)dihydropyrimidine-2,4(1H,3H)-dione], the IC50 (in assay [1]; in the assay with phosphorylated ERK) was at most 50 nM in each case.
With `CCc1c(F)ccc2cc(O)cc(-c3ncc4c(N5CC6CCC(C5)N6)nc(OCC5(CN6CCN(CCCC7CCN(C(=O)c8ccc(Cl)c(N9CCC(=O)NC9=O)c8)CC7)CC6)CC5)nc4c3F)c12` [Example 22, 1-(5-(4-(3-(4-((1-(((4-(3,8-diazabicyclo[3.2.1]octan-3-yl)-7-(8-ethyl-7-fluoro-3-hydroxynaphthalen-1-yl)-8-fluoropyrido[4,3-d]pyrimidin-2-yl)oxy)methyl)cyclopropyl)methyl)piperazin-1-yl)propyl)piperidine-1-carbonyl)-2-chlorophenyl)dihydropyrimidine-2,4(1H,3H)-dione], the IC50 (in assay [1]; with phosphorylated ERK) was at most 50 nM in each case.
Take `C#Cc1c(F)ccc2cc(O)cc(-c3ncc4c(N5CC6CCC(C5)N6)nc(OCC(C)(C)CN5CCN(CCCC6CCN(C(=O)c7ccc(Cl)c(N8CCC(=O)NC8=O)c7)CC6)CC5)nc4c3F)c12` [Example 23, 1-(5-(4-(3-(4-(3-((4-(3,8-diazabicyclo[3.2.1]octan-3-yl)-7-(8-ethynyl-7-fluoro-3-hydroxynaphthalen-1-yl)-8-fluoropyrido[4,3-d]pyrimidin-2-yl)oxy)-2,2-dimethylpropyl)piperazin-1-yl)propyl)piperidine-1-carbonyl)-2-chlorophenyl)dihydropyrimidine-2,4(1H,3H)-dione]: the IC50 in assay [1] was at most 50 nM; in the assay with phosphorylated ERK, 100 to 500 nM.
As for `C#Cc1c(F)ccc2cc(O)cc(-c3ncc4c(N5CC6CCC(C5)N6)nc(OCC5(CN6CCN(CCCC7CCN(C(=O)c8ccc(Cl)c(N9CCC(=O)NC9=O)c8)CC7)CC6)CCC5)nc4c3F)c12` [Example 24, 1-(5-(4-(3-(4-((1-(((4-(3,8-diazabicyclo[3.2.1]octan-3-yl)-7-(8-ethynyl-7-fluoro-3-hydroxynaphthalen-1-yl)-8-fluoropyrido[4,3-d]pyrimidin-2-yl)oxy)methyl)cyclobutyl)methyl)piperazin-1-yl)propyl)piperidine-1-carbonyl)-2-chlorophenyl)dihydropyrimidine-2,4(1H,3H)-dione], the IC50 (in assay [1]; with phosphorylated ERK) was at most 50 nM throughout.
With `C#Cc1c(F)ccc2cc(O)cc(-c3ncc4c(N5CC6CCC(C5)N6)nc(OCC5(CN6CCN(CC7CCC8(CC7)CCN(C(=O)c7ccc(OC)c(N9CCC(=O)NC9=O)c7)CC8)CC6)CCC5)nc4c3F)c12` [Example 25, 1-(5-(9-((4-((1-(((4-(3,8-diazabicyclo[3.2.1]octan-3-yl)-7-(8-ethynyl-7-fluoro-3-hydroxynaphthalen-1-yl)-8-fluoropyrido[4,3-d]pyrimidin-2-yl)oxy)methyl)cyclobutyl)methyl)piperazin-1-yl)methyl)-3-azaspiro[5.5]undecane-3-carbonyl)-2-methoxyphenyl)dihydropyrimidine-2,4(1H,3H)-dione], the IC50 was at most 50 nM in assay [1] and 100 to 500 nM in the assay on phosphorylated ERK.
For `C#Cc1c(F)ccc2cc(O)cc(-c3ncc4c(N5CC6CCC(C5)N6)nc(OCC(C)(C)CN5CCN(CC6CCC7(CC6)CCN(C(=O)c6ccc(OC)c(N8CCC(=O)NC8=O)c6)CC7)CC5)nc4c3F)c12` [Example 26, 1-(5-(9-((4-(3-((4-(3,8-diazabicyclo[3.2.1]octan-3-yl)-7-(8-ethynyl-7-fluoro-3-hydroxynaphthalen-1-yl)-8-fluoropyrido[4,3-d]pyrimidin-2-yl)oxy)-2,2-dimethylpropyl)piperazin-1-yl)methyl)-3-azaspiro[5.5]undecane-3-carbonyl)-2-methoxyphenyl)dihydropyrimidine-2,4(1H,3H)-dione], in that order: 50 to 100 nM and at most 50 nM.
For `C#Cc1c(F)ccc2cc(O)cc(-c3ncc4c(N5CC6CCC(C5)N6)nc(OCC5(CN6CCN(CC7CCC8(CC7)CCN(C(=O)c7ccc(Br)c(N9CCC(=O)NC9=O)c7)CC8)CC6)CC5)nc4c3F)c12` [Example 29, 1-(5-(9-((4-((1-(((4-(3,8-diazabicyclo[3.2.1]octan-3-yl)-7-(8-ethynyl-7-fluoro-3-hydroxynaphthalen-1-yl)-8-fluoropyrido[4,3-d]pyrimidin-2-yl)oxy)methyl)cyclopropyl)methyl)piperazin-1-yl)methyl)-3-azaspiro[5.5]undecane-3-carbonyl)-2-bromophenyl)dihydropyrimidine-2,4(1H,3H)-dione], in that order: at most 50 nM and at most 50 nM.
